Source: US20250313560A1, “Novel bicyclic benzylamido pyridine derivatives as SOS1 inhibitors” (Boehringer Ingelheim International GmbH, priority 2024, published 2025)
Where two headings read alike, the source gives them in different places.

Tests used:
[1] = system: ERK phosphorylation in NCI-H358 SOS2 KO cells (KRAS G12C); assay: Erk phosphorylation assay; format: cell-based, human; settings: EGF stimulated, average of at least two measurements, read-out: pERK IC50
Experimental: Low IC50 values are indicative of high potency of the SOS1 inhibitor compounds in this assay setting.
ERK phosphorylation assays are performed using the following human cell line: • NCI-H358 SOS2 KO (Hofmann, Gmachl, Ramharter et al, Cancer Discov. 2021, 11(1):142-15): human lung cancer with a KRAS G12C mutation;
NCI-H358 SOS2 KO are seeded at 50000 cells per well in 60 μL of DMEM with 2% FBS, in Greiner TC 384 plates. The cells are incubated overnight in an incubator at 37° C. and 5% CO2 in a humidified atmosphere. 60 nL compound solution (10 mM DMSO stock solution) is then added using a Beckman Coulter Labcyte Echo 550 device. After 50 min incubation in the aforementioned incubator, 5 nl EGF are added to each well for a final concentration of approx. 8 ng/mL using a Beckman Coulter Labcyte Echo 550 device and cells are incubated for another 10-15 minutes before lysis. The medium is removed, and the cells are lysed by addition of 20 μL of 1.6-fold lysis buffer from the AlphaLISA SureFire Ultra pERK1/2 (Thr202/Tyr204) Assay Kit with added protease inhibitors. After 20 minutes of incubation at rt with shaking, 6 μL of each lysate sample is transferred to a 384-well Proxiplate and analyzed for pERK (Thr202/Tyr204) with the AlphaLISA SureFire Ultra pERK1/2 (Thr202/Tyr204) Assay Kit. 3 μL Acceptor Mix and 3 μL Donor Mix are added under subdued light and incubated for 2 h at rt in the dark, before the signal is measured on a Perkin Elmer Envision plate reader using 384 AlphaScreen settings for Proxiplates. Data are fitted by iterative calculation with variable hill slope. The sigmoidal curve slope is fitted using a default fitting curve to ascertain IC50 values.
Table 2: Erk Phosphorylation assay. The value indicates an average value of at least two measurements.

human hepatocytes = assay: Metabolic stability in human hepatocytes; settings: 1 μM test compound, 50% human serum, percentage of liver blood flow
Experimental: The metabolic degradation of a test compound is performed with hepatocytes in suspension. After recovery from cryopreservation, human hepatocytes are diluted in Dulbecco's modified eagle medium (supplemented with 3.5 μg glucagon/500 mL, 2.5 mg insulin/500 mL, 3.75 mg hydrocortisone/500 mL, 50% human serum) to obtain a final cell density of 1.0×10^6 cells/mL. Following a preincubation in a cell culture incubator (37° C., 10% CO2), test compound dissolved in DMSO is mixed with the hepatocyte suspension, resulting in a final test compound concentration of 1 μM and a final DMSO concentration of 0.05%.
The cell suspension is incubated at 37° C. (cell culture incubator, horizontal shaker) and samples are removed from the incubation after 0, 0.5, 1, 2, 4 and 6 hours. Samples are quenched with acetonitrile (containing internal standard) and pelleted by centrifugation. The supernatant is transferred to a deep-well plate and prepared for analysis of decline of parent compound by HPLC-MS/MS.
The percentage of remaining test compound is calculated using the peak area ratio (test compound/internal standard) of each incubation time point relative to the time point 0 peak area ratio. The log-transformed data are plotted versus incubation time, and the absolute value of the slope obtained by linear regression analysis is used to estimate in vitro half-life (T1/2).
CL_[sequence]_IN VIVO[mL/min/kg]=(CL_[sequence][μL/min/10^6cells]×hepatocellularity[10^6cells/g liver]×liver factor[g/kg body weight])/1000
Hepatic in vivo blood clearance (CL) is predicted according to the well-stirred liver model considering an average liver blood flow (QH) of 20.7 mL/min/kg:
CL[mL/min/kg]=CL_[sequence]_IN VIVO[mL/min/kg]×hepatic blood flow[mL/min/kg]/(CL_[sequence]_IN VIVO[mL/min/kg]+hepatic blood flow[mL/min/kg])
Results are expressed as percentage of hepatic blood flow:
QH[%]=CL[mL/min/kg]/hepatic blood flow[mL/min/kg])

P450 3A4 = P450 3A4 (Homo sapiens (Human), UniProt P08684); assay: Cytochrome P450 isoenzyme inhibition assay (P450 3A4, midazolam); format: in vitro ADME; settings: human liver microsomes, Midazolam as substrate; read-out: CYP3A4 inhibition IC50
Experimental: For the following cytochrome P450 isoenzymes, these substrates and metabolic reactions are monitored: P450 3A4: hydroxylation of Midazolam (MDZ).
The final incubation volume contains TRIS buffer (0.1 M), MgCl2 (5 mM), a certain concentration of human liver microsomes dependent on the P450 isoenzyme measured (P450 3A4: 0.1 mg/ml) and a certain concentration of the individual substrate for each isoenzyme (P450 3A4: Midazolam 5 μM).
The effect of the test compound is determined at five different concentrations in duplicate (e.g. highest concentration 50 μM with subsequent serial 1:4 dilutions) or without test compound (high control). Following a short preincubation period, reactions are started with the cofactor (NADPH, 1 mM) and stopped by cooling the incubation down to 8° C. and subsequently by addition of one volume of ACN. An internal standard solution—usually the stable isotope of the formed metabolite—is added after quenching of incubations. Peak area analyte (=metabolite formed) and internal standard is determined by LC-MS/MS. The resulting peak area ratio analyte to internal standard in these incubations is compared to a control activity containing no test compound. Within each of the assay runs, the IC50 of a positive control inhibitor dependent on the P450 isoenzyme measured (P450 3A4: ketoconazole) is determined. The assay results are plotted against compound concentrations to calculated IC50 values (half maximal inhibitory concentrations) for inhibitory compounds utilizing Software IDBS E-WorkBook.
Table 4: Inhibition of P450 isoenzyme 3A^4.

SOS1 and KRAS G12D = SOS1 and KRAS G12D (Homo sapiens (Human), UniProt Q07889); assay: KRAS::SOS1 AlphaScreen binding assay (KRAS G12D); settings: average of at least two measurements
Experimental: (§1) Low IC50 values are indicative of high potency of the SOS1 inhibitor compound in this assay setting:
(§2) • GST-tagged SOS1 (564_1049_GST_TEV_ECO) produced in-house • 6xHis-Tev-K-RasG12D/G12C(1-169)Avi produced in-house • GDP (Sigma Cat No G7127) • AlphaLISA Glutathione Acceptor Beads (PerkinElmer, Cat No AL109) • AlphaScreen Streptavidin Donor Beads (PerkinElmer Cat No 6760002) • Assay plates: Proxiplate-384 PLUS, white (PerkinElmer, Cat No 6008289)
(§3) [formula] • KRAS::SOS1 GDP mix: • 7.5 nM (final assay concentration) K-RasG12C, 10 nM (final assay concentration) K-RasG12D, 10 μM (final assay concentration) GDP and 5 nM (final assay concentration) GST-SOS1 are mixed in assay buffer prior to use and kept at rt. Bead mix: • AlphaLISA Glutathione Acceptor Beads and AlphaScreen Streptavidin Donor Beads are mixed in the dark in assay buffer at a concentration of 10 μg/mL (final assay concentration) each prior to use and kept at rt.
(§4) Compounds are diluted to a final start concentration of 100 μM and are tested in duplicate. Assay-ready plates (ARPs) are generated using an Access Labcyte Workstation with a Labcyte Echo 550 or 555 acoustic dispenser. For compound a start concentration of 100 μM, 150 nL of compound solution is transferred per well in 11 concentrations in duplicate with serial 1:5 dilutions.
(§5) The assay is run using a fully automated robotic system in a darkened room below 100 Lux. 10 μL of KRAS::SOS1 GDP mix is added into columns 1-24 to the 150 nL of compound solution (final dilution in the assay 1:100, final DMSO concentration 1%).
(§6) After a 30 minute incubation time, 5 μL of bead mix is added into columns 1-23. Plates are kept at rt in a darkened incubator. After a further 60 minutes incubation, the signal is measured using a PerkinElmer Envision HTS Multilabel Reader using the AlphaScreen specifications from PerkinElmer. Each plate contains the following controls:
(§7) diluted DMSO+KRAS::SOS1 GDP mix+bead mix
(§8) diluted DMSO+KRAS::SOS1 GDP mix
(§9) Result calculation: IC50 values are calculated and analyzed using a 4 parametric logistic model.
(§10) Table 1: Inhibition values for KRAS G12C as well as for KRAS G12D. […] The value indicates an average value of at least two measurements.

CYP3A4 = CYP3A4 (Homo sapiens (Human), UniProt P08684); assay: Mechanism-based inhibition of CYP3A4 assay (MBI 3A4); format: in vitro ADME; settings: human liver microsomes, midazolam substrate, hydroxy-midazolam formation after 30 min preincubation relative to 0 min; for inhibition at 30 min: human, probe midazolam 15 μM (hydroxy-midazolam formation), read-out: MBI inhibition % ctrl. [%] with MDZ
Experimental: Mechanism-Based Inhibition of CYP3A4 assay (MBI 3A4): The mechanism-based inhibition towards CYP3A4 is assayed in human liver microsomes with midazolam as substrate. The test compounds and water control (wells w/o test compound) are preincubated in presence of NADPH (1 mM) with human liver microsomes (0.2 mg/mL) at a concentration of 0, 5 and 25 μM for 0, 10 and 30 min. After preincubation, the incubate is diluted 1:10 (to 0.02 mg/mL) and the substrate midazolam (15 μM) is added for the main incubation (10 min). The main incubation is quenched with ACN and the formation of hydroxy-midazolam is quantified via LC/MS-MS. The formation of hydroxy-midazolam from the 30 min preincubation relative to the formation from the 0 min preincubation is used as a readout. Values of less than 100% mean that the substrate midazolam is metabolized to a lower extent upon 30 min preincubation compared to 0 min preincubation. In general, low effects upon 30 min preincubation are desired (corresponding to values close to 100%/not different to the values determined with water control).
Table 5: Mechanism-based inhibition of P450 isoenzyme 3A4 with midazolam as substrate.

SOS1 and KRAS G12C = SOS1 and KRAS G12C (Homo sapiens (Human), UniProt Q07889); assay: KRAS::SOS1 AlphaScreen binding assay (KRAS G12C); settings: average of at least two measurements
Experimental: as §1, §2, §3, §4, §5, §6, §7, §8, §9, §10

[2] = Homo sapiens, NCI-H358, NCI-H358 SOS2 KO cells

CYP3A4, sequence (P08684 whole entry): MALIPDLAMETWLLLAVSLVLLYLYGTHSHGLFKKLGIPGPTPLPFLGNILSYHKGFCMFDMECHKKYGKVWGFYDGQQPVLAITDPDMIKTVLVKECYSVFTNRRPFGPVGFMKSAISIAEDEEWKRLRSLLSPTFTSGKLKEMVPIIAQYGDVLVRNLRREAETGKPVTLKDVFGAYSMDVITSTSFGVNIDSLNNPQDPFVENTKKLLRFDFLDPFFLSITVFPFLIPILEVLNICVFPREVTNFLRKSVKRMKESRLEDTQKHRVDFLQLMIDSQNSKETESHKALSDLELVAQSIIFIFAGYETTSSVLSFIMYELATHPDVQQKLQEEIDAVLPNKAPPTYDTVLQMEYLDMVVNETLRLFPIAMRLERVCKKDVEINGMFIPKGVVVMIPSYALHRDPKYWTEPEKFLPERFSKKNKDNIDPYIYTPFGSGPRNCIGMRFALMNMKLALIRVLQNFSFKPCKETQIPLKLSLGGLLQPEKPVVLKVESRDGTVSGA
P450 3A4, sequence (P08684 whole entry): as above
SOS1 and KRAS G12C, sequence (Q07889 564-1049, stated change not applied): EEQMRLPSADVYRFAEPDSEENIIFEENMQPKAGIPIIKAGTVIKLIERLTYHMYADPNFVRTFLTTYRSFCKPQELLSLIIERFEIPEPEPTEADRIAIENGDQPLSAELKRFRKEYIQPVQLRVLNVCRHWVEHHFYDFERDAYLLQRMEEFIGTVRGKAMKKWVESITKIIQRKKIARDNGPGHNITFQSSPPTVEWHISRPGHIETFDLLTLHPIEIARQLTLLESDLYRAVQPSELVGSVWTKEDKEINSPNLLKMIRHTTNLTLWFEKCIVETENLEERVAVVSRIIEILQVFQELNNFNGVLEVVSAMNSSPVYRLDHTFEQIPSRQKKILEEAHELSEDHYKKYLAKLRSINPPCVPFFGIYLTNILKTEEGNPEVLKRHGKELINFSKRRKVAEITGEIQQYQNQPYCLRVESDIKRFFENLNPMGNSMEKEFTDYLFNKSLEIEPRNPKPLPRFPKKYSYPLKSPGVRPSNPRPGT
SOS1 and KRAS G12D, sequence (Q07889 564-1049, stated change not applied): as above

| IC50 ([1]; NCI-H358 SOS2 KO cells) [µM] | Hepatic clearance - QH[%] in human hepatocytes (human hepatocytes) [%] | IC50 (P450 3A4) [µM] | IC50 (SOS1 and KRAS G12D) [nM] | inhibition at 30 min (CYP3A4) [%] | IC50 (SOS1 and KRAS G12C) [nM] | IC50 [1, 2] [µM] | MBI inhibition % ctrl. [%] with MDZ (CYP3A4) [%] | Structure (SMILES) |
| --- | --- | --- | --- | --- | --- | --- | --- | --- |
|  | 25 | > 50 | 61 | 102 | 81 | 0.216 |  | C[C@@H](NC(=O)c1cc(N2CCC(N3CC4CC4(CO)C3)CC2)c2ncnn2c1)c1cccc(C(F)F)c1F (single isomer, unassigned) [Example cis-E21a] |
| 0.242 | 38 | > 50 | 82 |  | 78 |  | 96 | C[C@@H](NC(=O)c1cc(N2CCC(N3CC4CC4(CO)C3)CC2)c2ncnn2c1)c1cccc(C(F)F)c1F (single isomer, unassigned) [Example cis-E21b] |
| 0.367 | 26 | > 50 | 38 | 95 | 41 |  |  | C[C@@H](NC(=O)c1cc(N2CCC(NC3COCC3O)CC2)c2ncnn2c1)c1cccc(C(F)(F)F)c1F (single isomer, unassigned) [Example cis-E41b] |
| 0.04 | 14 | > 50 | 70 | 98 | 71 |  |  | C[C@@H](NC(=O)c1cc(N2CCC3CCNC3C2)c2ncnn2c1)c1cccc(C(F)(F)F)c1F (single isomer, unassigned) [Example cis-E52b] |
| 0.183 | 18 | > 50 | 26 |  | 26 |  | 101 | C[C@@H](NC(=O)c1cc(N2CCC(NC3COCC3O)CC2)c2ncnn2c1)c1cccc(C(F)(F)F)c1F (single isomer, unassigned) [Example trans-E42a] |

The remaining lines, values behind:

| Structure (SMILES) | IC50 ([1]; NCI-H358 SOS2 KO cells) [µM] | Hepatic clearance - QH[%] in human hepatocytes (human hepatocytes) [%] | IC50 (P450 3A4) [µM] | IC50 (SOS1 and KRAS G12D) [nM] | inhibition at 30 min (CYP3A4) [%] | IC50 (SOS1 and KRAS G12C) [nM] | IC50 [1, 2] [µM] | MBI inhibition % ctrl. [%] with MDZ (CYP3A4) [%] |
| --- | --- | --- | --- | --- | --- | --- | --- | --- |
| C[C@@H](NC(=O)c1cc(N2CCC(N3CCCC(O)CC3)CC2)c2ncnn2c1)c1cccc(C(F)F)c1F (single isomer, unassigned) [Example E17b] | 0.201 | 30 | > 50 | 32 | 98 | 38 |  |  |
| C[C@@H](NC(=O)c1cc(N2CCC(O)(C3CCCN3)CC2)c2ncnn2c1)c1cccc(C(F)F)c1F (single isomer, unassigned) [Example E38a] |  | 10 | > 50 | 45 | 94 | 66 | 0.112 |  |
| C[C@@H](NC(=O)c1cc(N2CCC(O)(C3CCCN3)CC2)c2ncnn2c1)c1cccc(C(F)F)c1F (single isomer, unassigned) [Example E38b] | 0.217 | 11 | > 50 | 41 |  | 59 |  | 86 |
| C[C@@H](NC(=O)c1cc(N2CCC(N3CCCC(O)CC3)CC2)c2ncnn2c1)c1cccc(C(F)(F)F)c1F (single isomer, unassigned) [Example E43a] | 0.046 | 25 | > 50 | 40 | 91 | 42 |  |  |
| C[C@@H](NC(=O)c1cc(N2CCC(N3CCCC(C)(O)C3)CC2)c2ncnn2c1)c1cccc(C(F)(F)F)c1F (single isomer, unassigned) [Example E47a] |  | 30 | > 50 | 99 | 97 | 96 | 0.162 |  |
| C[C@@H](NC(=O)c1cc(N2CCC(N3CCCC(C)(O)C3)CC2)c2ncnn2c1)c1cccc(C(F)(F)F)c1F (single isomer, unassigned) [Example E47b] | 0.198 | 28 | > 50 | 45 |  | 41 |  | 88 |
| C[C@@H](NC(=O)c1cc(N2CCC(NC3COCC3O)CC2)c2ncnn2c1)c1cccc(C(F)F)c1F (single isomer, unassigned) [Example cis-E16a] |  | 32 | > 50 | 41 | 92 | 45 | 0.32 |  |
| C[C@@H](NC(=O)c1cc(N2CCC(NC3COCC3O)CC2)c2ncnn2c1)c1cccc(C(F)F)c1F (single isomer, unassigned) [Example cis-E16b] | 0.316 | 24 | > 50 | 19 |  | 26 |  | 87 |
